In publication PMC5829251, “NAD^+ analog reveals PARP-1 substrate-blocking mechanism and allosteric communication from catalytic center to DNA-binding domains” (Nature Communications, 2018):

Columns and labels:
Format in all cases: binding
[1] = target: T1, PARP-1 WT (Homo sapiens, UniProt P09874); assay: Fluorescence polarization DNA affinity measurement assay; settings: presence versus absence of compound
T1 construct: Full-length PARP-1 WT (residues 1–1014) was cloned in pET28 vector; made in house; host or cells: E. coli
Protocol: (§1) For the DNA competition assay, 40 nM PARP-1 WT, or PARP-1 ΔHD, was incubated with 20 nM of dumbbell DNA with a central nick carrying an internal fluorescent FAM group (5′-GCT GAG C/FAMT/T CTGGTGAAGCTCAGCTCGCGGCAGCTGGTGCTGCCGCGA-3′) for 30 min at RT in 12 mM Hepes pH 8.0, 60 mM KCl, 8 mM MgCl2, 4% glycerol, 5.7 mM beta-mercaptoethanol, 0.05 mg per ml bovine serm albumin with or without BAD or benzamide (500 μM). A competitor unlabeled DNA of the same sequence was added at 100 nM and FP was measured over time on a VictorV plate reader (Perkin Elmer). For the DNA affinity measurement assay, increasing concentrations of PARP-1 WT were incubated for 30 min at RT with 5 nM of dumbbell DNA probe carrying a nick (described above) in the absence or presence of BAD or benzamide (100 μM) in the following buffer: 12 mM Hepes pH 8.0, 250 mM NaCl, 4% glycerol, 5.7 mM beta-mercaptoethanol, 0.05 mg per ml bovine serum albumin.

[2] = target: T1, PARP-1 WT; assay: Fluorescence polarization DNA competition assay, PARP-1 WT; settings: 40 nM PARP-1 WT, 20 nM labeled DNA, compound 500 μM, competitor 100 nM
Protocol: as §1

[3] = target: T2, PARP-1 CAT ΔHD (Homo sapiens, UniProt P09874); assay: ITC, PARP-1 CAT ΔHD; settings: for n (stoichiometry): CAT ΔHD; for Kd: CAT ΔHD 50 μM, compound 525 μM titrated, 25°C
T2 construct: a pET28 construct coding for PARP-1 residues 661-1011; made in house; host or cells: E. coli
Protocol: ITC experiments were performed using a MicroCal iTC200 calorimeter (GE Healthcare). BAD or benzamide at 525 μM was titrated into PARP-1 protein (50 μM for CAT WT and CAT ΔHD, 40 μM for full-length PARP-1 WT and mutants) or PARP-1 protein with DNA (20–40 μM) at 25°C. Prior to the experiment, proteins and DNA were dialyzed in 25 mM Hepes pH 8.0, 150 mM NaCl, 1 mM EDTA, and 0.1 mM TCEP. BAD and benzamide were diluted in the dialysis buffer. PARP-1/DNA complexes were assembled and incubated at RT for 30 min prior to performing the experiment. Experiments were typically designed as follows: a first injection of 0.2 μL was followed by 16 injections of 2.5 μL with a spacing of 100 s between injections. Excess heat upon each injection was integrated using an automatically adjusted base line and derived values corrected by heat of dilution. Data analysis and curve fitting were conducted using Origin 7 software. The ITC experiment for each sample was performed either two (PARP-1 WT with benzamide, PARP-1 E763/D766/D770A with benzamide, PARP-1 D766/D770A with BAD) or three times (the remaining eight samples). Table 2 lists the average KD value and stoichiometry (n) for the replicates, and the reported errors are the calculated standard deviations (representing the range of values for experiments repeated two times). We anticipate that the sub-stoichiometric n values for CAT constructs results from either the active fraction being < 100%, or the protein concentration determination being not entirely accurate. The analysis of full-length PARP-1 yielded n values around the expected value of 1.

[4] = target: T2, PARP-1 CAT ΔHD; assay: DSF, PARP-1 CAT ΔHD; settings: for TM: CAT ΔHD 5 μM, in °C (unit assumed)
Protocol: DSF experiments were performed as described, [13] using 5 µM protein, 2.5 µM DNA when indicated and various concentrations of compound (BAD, carba-NAD^+, benzamide, and ADP-ribose) as indicated in Fig. 1 and Fig. 3. Experiments were performed on a Roche LightCycler 480 RT-PCR. Reactions including DNA were performed with a 26- or 28-base pair (bp) unphosphorylated oligonucleotide for PARP-1, a 28-bp 5´-phosphorylated (5´P) oligonucleotide for PARP-2, and a 47-bp oligonucleotide including a central 5´P nick for PARP-3^13 in the following buffer: 25 mM Hepes pH 8.0, 150 mM NaCl, 1 mM EDTA, and 0.1 mM TCEP. Reactions with PARP-3 were conducted at lower ionic strength to allow binding to DNA as described (25 mM Hepes pH 8.0, 50 mM NaCl, 1 mM EDTA and 0.1 mM TCEP)[13]. ΔTM values were calculated by subtracting the TM determined for the protein in the absence of compound from the TM determined in the presence of compound. Experiments were performed in triplicate and a Boltzmann sigmoid was fit to the data to determine the TM values (KaleidaGraph).

[5] = Figure 1e, compound 25 µM, TM without compound 41.26
[6] = Figure 1e, compound 150 µM, TM without compound 41.26
[7] = Figure 1e, compound 750 µM, TM without compound 41.26
[8] = Figure 1e, compound 1500 µM, TM without compound 41.26

T2 sequence (P09874 with tags, fused parts or gaps): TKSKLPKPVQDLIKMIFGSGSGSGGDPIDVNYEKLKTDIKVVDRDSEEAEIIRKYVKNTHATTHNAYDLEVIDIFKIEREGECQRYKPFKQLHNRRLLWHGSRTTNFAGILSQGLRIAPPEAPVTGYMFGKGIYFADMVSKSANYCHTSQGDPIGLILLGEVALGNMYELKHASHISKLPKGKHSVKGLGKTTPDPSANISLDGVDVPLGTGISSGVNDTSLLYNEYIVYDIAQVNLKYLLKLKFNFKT
T1 sequence (P09874 whole entry, the tested form may be a part): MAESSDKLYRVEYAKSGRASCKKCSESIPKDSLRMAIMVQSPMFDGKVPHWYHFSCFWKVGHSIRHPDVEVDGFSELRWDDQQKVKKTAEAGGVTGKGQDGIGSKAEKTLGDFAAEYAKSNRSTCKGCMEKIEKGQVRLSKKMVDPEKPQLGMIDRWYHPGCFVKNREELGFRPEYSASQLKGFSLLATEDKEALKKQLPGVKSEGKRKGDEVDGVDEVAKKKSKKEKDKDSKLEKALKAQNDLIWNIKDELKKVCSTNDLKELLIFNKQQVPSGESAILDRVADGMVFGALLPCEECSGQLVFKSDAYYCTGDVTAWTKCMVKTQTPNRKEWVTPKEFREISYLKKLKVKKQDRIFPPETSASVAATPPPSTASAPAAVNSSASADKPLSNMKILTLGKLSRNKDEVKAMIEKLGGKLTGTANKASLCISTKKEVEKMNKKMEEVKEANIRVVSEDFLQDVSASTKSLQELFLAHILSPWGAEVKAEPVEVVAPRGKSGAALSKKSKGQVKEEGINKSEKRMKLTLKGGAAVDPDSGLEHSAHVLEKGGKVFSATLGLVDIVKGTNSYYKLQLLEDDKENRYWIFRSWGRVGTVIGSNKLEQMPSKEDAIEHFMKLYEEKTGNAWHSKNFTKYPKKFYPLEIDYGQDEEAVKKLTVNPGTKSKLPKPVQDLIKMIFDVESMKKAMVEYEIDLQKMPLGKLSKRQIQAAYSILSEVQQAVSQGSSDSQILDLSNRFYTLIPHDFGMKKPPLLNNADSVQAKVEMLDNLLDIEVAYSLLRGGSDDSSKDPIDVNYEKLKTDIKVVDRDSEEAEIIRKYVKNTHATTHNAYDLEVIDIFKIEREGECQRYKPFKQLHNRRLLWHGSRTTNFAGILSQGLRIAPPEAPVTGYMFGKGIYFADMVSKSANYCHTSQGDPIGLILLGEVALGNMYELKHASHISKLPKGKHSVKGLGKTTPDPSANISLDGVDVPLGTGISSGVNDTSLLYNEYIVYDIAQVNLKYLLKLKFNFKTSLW

With `NC(=O)c1cccc(C2OC(COP(=O)(O)OP(=O)(O)OCC3OC(n4cnc5c(N)ncnc54)C(O)C3O)C(O)C2O)c1` (stereo not drawn) [BAD, benzamide adenine dinucleotide] the “increase in PARP-1 affinity for a DNA single-strand break” value [1] was 10 fold, the “exchange of PARP-1 from labeled to unlabeled competitor DNA” value [2] was “greatly prevented the exchange” and the “n (stoichiometry)” value [3] was 0.63 + /− 0.09. For the same compound, the Kd [3] was 5.87 µM, the TM [4, 5] was 45.52 and the TM [4, 6] was 48.60. For the same compound, the TM [4, 7] was 49.27, the TM [4, 8] was 51.95 and the TM ([4]; Figure 1d, compound 50 µM, TM without compound 41.76) was 47.02. The TM ([4]; Figure 1d, compound 250 µM, TM without compound 41.76) was 49.58, the TM ([4]; Figure 1d, compound 1250 µM, TM without compound 41.76) was 51.91 and the “TM increase (ΔTM) of CAT ΔHD” value ([4]; at the highest concentration, 5 μM protein) was 10 °C.

For `NC(=O)c1ccccc1` [benzamide], the “increase in PARP-1 affinity for a DNA single-strand break” value [1] was “no effect”, the “exchange of PARP-1 from labeled to unlabeled competitor DNA” value [2] was “did not affect PARP-1 release” and the “n (stoichiometry)” value [3] was 0.39 + /− 0.01. The Kd [3] was 3.21 µM, the “change of TM of CAT ΔHD (evidence of binding)” value ([4]; 5 μM protein, various amounts of compound) was “increased the TM” and the TM [4, 5] was 43.73. For the same compound, the TM [4, 6] was 46.20, the TM [4, 7] was 46.99 and the TM [4, 8] was 49.98.
